For one test, the target named is T1, OX1 (Homo sapiens, UniProt O43613).
T1 construct: expressed in transfected cells; host or cells: CHO (CHO-OX1)
T1 sequence (O43613 1-425): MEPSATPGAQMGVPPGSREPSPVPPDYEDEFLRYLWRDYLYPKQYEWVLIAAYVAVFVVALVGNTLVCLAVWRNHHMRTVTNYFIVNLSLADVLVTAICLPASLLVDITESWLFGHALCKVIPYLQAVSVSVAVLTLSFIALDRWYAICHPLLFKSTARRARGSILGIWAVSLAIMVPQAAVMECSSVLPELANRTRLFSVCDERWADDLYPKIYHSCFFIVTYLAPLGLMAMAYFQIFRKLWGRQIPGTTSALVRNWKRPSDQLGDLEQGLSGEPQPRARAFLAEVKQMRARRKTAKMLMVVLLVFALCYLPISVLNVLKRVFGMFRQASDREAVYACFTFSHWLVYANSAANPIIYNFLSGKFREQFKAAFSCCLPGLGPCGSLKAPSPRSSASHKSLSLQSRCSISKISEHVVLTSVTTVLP
Kind of test: Orexin receptor cell-based functional assay, [Ca2+]i by FLIPR, CHO-OX1 cells. The settings on record: FLIPR calcium, antagonism of EC90 of [OX], read-out: OXI, IC50.

Another test deals with T2, OX2 (Homo sapiens, UniProt O43614).
T2 construct: expressed in transfected cells; host or cells: CHO (CHO-OX2)
T2 sequence (O43614 1-444): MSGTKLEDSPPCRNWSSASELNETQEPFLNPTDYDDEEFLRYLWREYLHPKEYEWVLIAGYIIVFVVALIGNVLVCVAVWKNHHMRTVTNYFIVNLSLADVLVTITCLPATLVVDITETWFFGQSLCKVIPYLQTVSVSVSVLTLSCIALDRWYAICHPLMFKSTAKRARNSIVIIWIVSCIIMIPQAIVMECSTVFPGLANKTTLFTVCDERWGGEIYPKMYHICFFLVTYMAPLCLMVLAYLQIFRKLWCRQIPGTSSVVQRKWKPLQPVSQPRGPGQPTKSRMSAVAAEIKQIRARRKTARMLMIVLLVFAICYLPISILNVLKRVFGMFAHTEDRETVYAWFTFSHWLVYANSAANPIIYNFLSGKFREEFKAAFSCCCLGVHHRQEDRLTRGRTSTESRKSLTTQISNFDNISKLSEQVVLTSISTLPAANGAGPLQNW
As to the kind of experiment: Orexin receptor cell-based functional assay, [Ca2+]i by FLIPR, CHO-OX2 cells. The note with it: FLIPR calcium, antagonism of EC90 of [OX]. In a few lines:
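CHO cells expressing human OX1 or OX2 (20,000/well, grown overnight) were loaded with Calcium6 dye plus 2.5 mM probenecid for 2 h at 37 °C, then preincubated 30 min with compound (0.1 nM–10 µM). FLIPR fluorescence (ex 488/em 540 nm) was tracked before and after an EC90 orexin challenge.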

pIC50: −log10 of the molar value. Some results are limits rather than exact numbers.

Twelve compounds from patent publication US12084437B2, “Halo-substituted piperidines as orexin receptor modulators” (AstraZeneca AB, priority 2016, dated 2024) can be followed below.

For `CCc1cnc(NC[C@@H]2[C@H](C)CC(F)(F)CN2C(=O)c2nc(C)sc2-c2ccc(F)cc2)nc1` [Compound 239, ((2S,3R)-2-(((5-ethylpyrimidin-2-yl)amino)methyl)-5,5-difluoro-3-methylpiperidin-1-yl)(5-(4-fluorophenyl)-2-methylthiazol-4-yl)methanone], the results for the pIC50 on OX1 and on OX2 were 7.54 and less than 5.30, respectively.

As to `Cc1ccc(-c2nnn(C)n2)c(C(=O)N2CC(F)(F)C[C@@H](C)[C@H]2CNc2ncc(C(F)(F)F)cn2)n1` [Compound 240, ((2S,3R)-5,5-difluoro-3-methyl-2-(((5-(trifluoromethyl)pyrimidin-2-yl)amino)methyl)piperidin-1-yl)(6-methyl-3-(2-methyl-2H-tetrazol-5-yl)pyridin-2-yl)methanone], the pIC50 is 7.54 at OX1 and less than 5.30 at OX2.

On to `C[C@@H]1CC(F)(F)CN(C(=O)c2nn(C)cc2-c2ccncn2)[C@@H]1CNc1ncc(C(F)(F)F)cn1` [Compound 241, ((2S,3R)-5,5-difluoro-3-methyl-2-(((5-(trifluoromethyl)pyrimidin-2-yl)amino)methyl)piperidin-1-yl)(1-methyl-4-(pyrimidin-4-yl)-1H-pyrazol-3-yl)methanone], for which the values for the pIC50 on OX1 and on OX2 were less than 6.00 and less than 5.30, respectively.

With `C[C@@H]1CC(F)(F)CN(C(=O)c2nn(C)cc2-c2ncc(F)cn2)[C@@H]1CNc1ncc(C(F)(F)F)cc1F` [Compound 242, ((2S,3R)-5,5-difluoro-2-(((3-fluoro-5-(trifluoromethyl)pyridin-2-yl)amino)methyl)-3-methylpiperidin-1-yl)(4-(5-fluoropyrimidin-2-yl)-1-methyl-1H-pyrazol-3-yl)methanone], the pIC50 is 8.30 at OX1 and less than 5.30 on OX2.

As for `C[C@@H]1CC(F)(F)CN(C(=O)c2nn(C)cc2-c2ncc(F)cn2)[C@@H]1COc1ncc(C(F)(F)F)cn1` [Compound 246], the pIC50 at OX1 is 5.32; at OX2, less than 5.30.

Regarding `C[C@@H]1CC(F)(F)CN(C(=O)c2nn(C)cc2-c2ncccn2)[C@@H]1COc1ncc(C(F)(F)F)cc1F` [Compound 247], the pIC50 is 6.36 on OX1 and less than 5.30 at OX2.

As for `C[C@@H]1CC(F)(F)CN(C(=O)c2nn(C)cc2-c2ncc(F)cn2)[C@@H]1COc1ccc(C(F)(F)F)cn1` [Compound 248], the pIC50 is 7.30 on OX1 and less than 5.30 at OX2.

In the case of `C[C@@H]1CC(F)(F)CN(C(=O)c2nn(C)nc2-c2ccc(Cl)cn2)[C@@H]1CNc1ncc(C(F)(F)F)cn1` [Compound 249], the negative-log IC50 (pIC50) on OX1 was 8.10; at OX2, less than 5.30.

Turning to `C[C@@H]1CC(F)(F)CN(C(=O)c2cc(F)ccc2-c2nnn(C)n2)[C@@H]1CNc1ncc(C(F)(F)F)cn1` [Compound 252, ((2S,3R)-5,5-difluoro-3-methyl-2-(((5-(trifluoromethyl)pyrimidin-2-yl)amino)methyl)piperidin-1-yl)(5-fluoro-2-(2-methyl-2H-tetrazol-5-yl)phenyl)methanone], the pIC50 at OX1 was 8.10; on OX2 it was less than 5.30.

Consider `C[C@@H]1CC(F)(F)CN(C(=O)c2cn(C)nc2-c2ccccc2)[C@@H]1CNc1ncc(Cl)cn1` [Compound 254], for which the values for the pIC50 on OX1 and on OX2 were 7.15 and less than 5.30, respectively.

For the compound `C[C@@H]1CC(F)(F)CN(C(=O)c2nn(C)cc2-c2ncc(F)cn2)[C@@H]1CN(C)c1ncc(C(F)(F)F)cn1` [Compound 263], the results for the pIC50 at OX1 and at OX2 were 7.24 and less than 5.30, respectively.

Regarding `Cc1c(-c2ncc(F)cn2)c(C(=O)N2CC(F)(F)C[C@@H](C)[C@H]2CNc2ncc(C(F)(F)F)cn2)nn1C` [Compound 264, ((2S,3R)-5,5-difluoro-3-methyl-2-(((5-(trifluoromethyl)pyrimidin-2-yl)amino)methyl)piperidin-1-yl)(4-(5-fluoropyrimidin-2-yl)-1,5-dimethyl-1H-pyrazol-3-yl)methanone], the pIC50 on OX1 was 8.52; on OX2, less than 5.30.
